Test results from patent US20240325398A1, “COMBINATION THERAPIES” (Infinity Pharmaceuticals, Inc., priority 2014, published 2024).

Experiments:
[1] = test system: HH; assay: Combination study, ATPLite 72 h, dose matrix (Synergy Score, CI50); assay type: cell-based; details: combination with Compound 1
Description: The method is described as follows.
Additive effect is CI=1.0. […] Antagonistic effect is CI>1.0.
The Synergy Score is calculated as: […]

[2] = test system: HBL-1; assay: as above; details: combination with Compound 1, 72 h
Description: (§1) Cells are thawed from a liquid nitrogen preserved state. Once cells have been expanded and divide at their expected doubling times, screening begins. Cells are seeded in growth media in either black 1536-well or 384-well tissue culture treated plates. Cells are then equilibrated in assay plates via centrifugation and placed in incubators attached to the Dosing Modules at 37° C. for 24 hours before treatment. […] These Tzero (To) plates are read using ultra-sensitive luminescence on Envision plate readers (Perkin Elmer). Treated assay plates are incubated with compound for 72 hours. After 72 hours, plates are developed for endpoint analysis using ATPLite. All data points are collected via automated processes, quality controlled and analyzed using Zalicus software.
(§2) where T is treated cell count and V is untreated (vehicle) cell count (at 72 hours). I ranges from 0% (when T=V) to 100% (when T=0). […] The measure of effect in the experiment can be the inhibition of cellular response relative to the untreated level (vehicle alone). […] The inhibition ranges from 0% at the untreated level to 100% when T=0. Inhibition levels are negative for agents that actually increase levels. Other effect measures, such as an activity ratio r=T/V may be more appropriate for some assays. When activity ratios (e.g, fold increase over stimulated control) are being used, the effect can be measured using an induction 1=ln(T/V). With this definition, all effect expressions are the same as for inhibition.
(§3) Growth Inhibition (GI) is used as a measure of cell viability. […] A GI reading of 100% represents complete growth inhibition—T72 compound-treated and T0 vehicle signals are matched. […] A GI reading of 200% represents complete death of all cells in the culture well. Compounds reaching an activity plateau of GI 200% are considered cytotoxic. GI is calculated by applying the following test and equation:
(§4) Combination analysis data were collected in a 6×6 dose matrix. Synergy is calculated by comparing a combination's response to those of its single compound, against the drug-with-itself dose-additive reference model. Deviations from dose additivity may be assessed visually on an isobologram or numerically with a Combination Index (CI). […] Additive effect is CI=1.0. […] Antagonistic effect is CI>1.0.
(§5) To measure combination effects in excess of Loewe additivity, a scalar measure to characterize the strength of synergistic interaction termed the Synergy Score is devised. The Synergy Score is calculated as:
(§6) The fractional inhibition for each component agent and combination point in the matrix is calculated relative to the median of all vehicle-treated control wells. The Synergy Score equation integrates the experimentally-observed activity volume at each point in the matrix in excess of a model surface numerically derived from the activity of the component agents using the Loewe model for additivity. Additional terms in the Synergy Score equation (above) are used to normalize for various dilution factors used for individual agents and to allow for comparison of synergy scores across an entire experiment. The inclusion of positive inhibition gating or an Idata multiplier removes noise near the zero effect level, and biases results for synergistic interactions at that occur at high activity levels.
(§7) Loewe Volume (Loewe Vol) is used to assess the overall magnitude of the combination interaction in excess of the Loewe additivity model. Loewe Volume is particularly useful when distinguishing synergistic increases in a phenotypic activity (positive Loewe Volume) versus synergistic antagonisms (negative Loewe Volume). […] This model defines additivity as a non-synergistic combination interaction where the combination dose matrix surface should be indistinguishable from either drug crossed with itself. The calculation for Loewe additivity is:

[3] = test system: OCI-Ly3; assay: as above; details: combination with Compound 1; OCI-Ly3; 72 h
Description: as §1, §2, §3, §4, §5, §6, §7

[4] = test system: U-2932; assay: as above; details: combination with Compound 1, 72 h
Description: as §1, §2, §3, §4, §5, §6, §7

[5] = test system: TMD8; assay: as above; details: combination with Compound 1
[6] = test system: OCI-Ly7; assay: as above; details: combination with Compound 1, 72 h
[7] = test system: SU-DHL-4-epst; assay: as above; details: combination with Compound 1, 72 h
[8] = test system: DOHH-2; assay: as above; details: combination with Compound 1, 72 h
[9] = test system: Farage; assay: as above; details: combination with Compound 1
[10] = test system: SU-DHL-10-epst; assay: as above; details: combination with Compound 1, 72 h
[11] = test system: RL; assay: as above; details: combination with Compound 1, 72 h
[12] = test system: KARPAS-422; assay: as above; details: combination with Compound 1, 72 h
Description: as §1, §2, §3, §4, §5, §6
(§8) Loewe Volume (Loewe Vol) is used to assess the overall magnitude of the combination interaction in excess of the Loewe additivity model. Loewe Volume is particularly useful when distinguishing synergistic increases in a phenotypic activity (positive Loewe Volume) versus synergistic antagonisms (negative Loewe Volume). […] This model defines additivity as a non-synergistic combination interaction where the combination dose matrix surface should be indistinguishable from either drug crossed with itself.

[13] = test system: WSU-NHL; assay: as above; details: combination with Compound 1, 72 h
[14] = test system: KARPAS-299; assay: as above; details: combination with Compound 1
[15] = test system: GRANTA-519; assay: as above; details: combination with Compound 1
[16] = test system: Jeko-1; assay: as above; details: combination with Compound 1
[17] = test system: Mino; assay: as above; details: combination with Compound 1
Description: as §1, §2, §3, §4, §5, §6, §8

[18] = test system: NCI-H929; assay: as above; details: combination with Compound 1
Description: as §1, §2, §3, §4, §5, §6, §8

[19] = as above; details: combination with Compound 1; OPM-2
[20] = test system: OMP-2; assay: as above; details: combination with Compound 1; OPM-2
[21] = test system: RPMI-8226; assay: as above; details: combination with Compound 1

SMILES: CO[C@H]1C[C@@H]2CC[C@@H](C)[C@@](O)(O2)C(=O)C(=O)N2CCCC[C@H]2C(=O)O[C@H]([C@H](C)C[C@@H]2CC[C@@H](OCCO)[C@H](OC)C2)CC(=O)[C@H](C)/C=C(\C)[C@@H](O)[C@@H](OC)C(=O)[C@H](C)C[C@H](C)/C=C/C=C/C=C/1C [everolimus, dihydroxy-12-[(2R)-1-[(1S,3R,4R)-4-(2-hydroxyethoxy)-3-methoxycyclohexyl]propan-2-yl]-19,30-dimethoxy-15,17,21,23,29,35-hexamethyl-11,36-dioxa-4-azatricyclo[30.3.1.0]hexatriaconta-16,24,26,28-tetraene-2,3,10,14,20-pentone]
- CI50 growth inhibition [1]: S (S=0.01 to <0.5)
- CI50 inhibition [1]: S (S=0.01 to <0.5)
- Synergy Score growth inhibition [1]: A3 (A3=>3)
- Synergy Score inhibition [1]: A2 (A2=1 to <3)
- CI50 growth inhibition [2]: T (T=0.5 to <0.7)
- CI50 inhibition [2]: U (U=0.7 to <1)
- Synergy Score growth inhibition [2]: A2 (A2=1 to <3)
- Synergy Score inhibition [2]: A1 (A1=0.0001 to <1)
- CI50 growth inhibition [3]: U (U=0.7 to <1)
- Synergy Score growth inhibition [3]: A2 (A2=1 to <3)
- Synergy Score inhibition [3]: A1 (A1=0.0001 to <1)
- CI50 growth inhibition [4]: S (S=0.01 to <0.5)
- Synergy Score growth inhibition [4]: A2 (A2=1 to <3)
- Synergy Score inhibition [4]: A2 (A2=1 to <3)
- CI50 growth inhibition ([5]; TMD8, 72 h): T (T=0.5 to <0.7)
- CI50 inhibition ([5]; TMD8, 72 h): S (S=0.01 to <0.5)
- Synergy Score growth inhibition ([5]; TMD8, 72 h): A3 (A3=>3)
- Synergy Score inhibition ([5]; TMD8, 72 h): A3 (A3=>3)
- effect of the combination (isobologram) ([5]; TMD8 DLBCL cell line, FIG. 1-3): synergistic effect
- CI50 growth inhibition [6]: S (S=0.01 to <0.5)
- CI50 inhibition [6]: W (W=≥1)
- Synergy Score growth inhibition [6]: A2 (A2=1 to <3)
- Synergy Score inhibition [6]: A2 (A2=1 to <3)
- CI50 growth inhibition [7]: S (S=0.01 to <0.5)
- CI50 inhibition [7]: S (S=0.01 to <0.5)
- Synergy Score growth inhibition [7]: A3 (A3=>3)
- Synergy Score inhibition [7]: A3 (A3=>3)
- CI50 growth inhibition [8]: S (S=0.01 to <0.5)
- CI50 inhibition [8]: S (S=0.01 to <0.5)
- Synergy Score growth inhibition [8]: A3 (A3=>3)
- Synergy Score inhibition [8]: A3 (A3=>3)
- effect of the combination (isobologram) ([9]; Farage DLBCL cell line, FIG. 4-5): synergistic effect
- CI50 growth inhibition ([9]; Farage, 72 h): T (T=0.5 to <0.7)
- CI50 inhibition ([9]; Farage, 72 h): S (S=0.01 to <0.5)
- Synergy Score growth inhibition ([9]; Farage, 72 h): A3 (A3=>3)
- Synergy Score inhibition ([9]; Farage, 72 h): A3 (A3=>3)
- CI50 growth inhibition [10]: S (S=0.01 to <0.5)
- CI50 inhibition [10]: S (S=0.01 to <0.5)
- Synergy Score growth inhibition [10]: A3 (A3=>3)
- Synergy Score inhibition [10]: A3 (A3=>3)
- CI50 growth inhibition [11]: T (T=0.5 to <0.7)
- CI50 inhibition [11]: S (S=0.01 to <0.5)
- Synergy Score growth inhibition [11]: A2 (A2=1 to <3)
- Synergy Score inhibition [11]: A2 (A2=1 to <3)
- CI50 growth inhibition [12]: W (W=≥1)
- CI50 inhibition [12]: S (S=0.01 to <0.5)
- Synergy Score growth inhibition [12]: A2 (A2=1 to <3)
- Synergy Score inhibition [12]: A2 (A2=1 to <3)
- CI50 growth inhibition [13]: T (T=0.5 to <0.7)
- CI50 inhibition [13]: S (S=0.01 to <0.5)
- Synergy Score growth inhibition [13]: A3 (A3=>3)
- Synergy Score inhibition [13]: A3 (A3=>3)
- CI50 growth inhibition [14]: U (U=0.7 to <1)
- CI50 inhibition [14]: W (W=≥1)
- Synergy Score growth inhibition [14]: A1 (A1=0.0001 to <1)
- Synergy Score inhibition [14]: A1 (A1=0.0001 to <1)
- CI50 growth inhibition [15]: S (S=0.01 to <0.5)
- Synergy Score growth inhibition [15]: A2 (A2=1 to <3)
- Synergy Score inhibition [15]: A1 (A1=0.0001 to <1)
- CI50 growth inhibition [16]: T (T=0.5 to <0.7)
- CI50 inhibition [16]: U (U=0.7 to <1)
- Synergy Score growth inhibition [16]: A2 (A2=1 to <3)
- Synergy Score inhibition [16]: A2 (A2=1 to <3)
- CI50 growth inhibition [17]: T (T=0.5 to <0.7)
- CI50 inhibition [17]: U (U=0.7 to <1)
- Synergy Score growth inhibition [17]: A2 (A2=1 to <3)
- Synergy Score inhibition [17]: A2 (A2=1 to <3)
- CI50 growth inhibition [18]: S (S=0.01 to <0.5)
- CI50 inhibition [18]: T (T=0.5 to <0.7)
- Synergy Score growth inhibition [18]: A3 (A3=>3)
- Synergy Score inhibition [18]: A2 (A2=1 to <3)
- CI50 growth inhibition [19]: S (S=0.01 to <0.5)
- CI50 inhibition [20]: W (W=≥1)
- Synergy Score growth inhibition [20]: A2 (A2=1 to <3)
- Synergy Score inhibition [20]: A2 (A2=1 to <3)
- CI50 growth inhibition [21]: U (U=0.7 to <1)
- CI50 inhibition [21]: W (W=≥1)
- Synergy Score growth inhibition [21]: A2 (A2=1 to <3)
- Synergy Score inhibition [21]: A1 (A1=0.0001 to <1)
